Test results reported in patent EP2663342B1, “STABLE HYDROGEL COMPOSITIONS INCLUDING PHENYLEPHRINE” (ALLERGAN, INC., priority 2011, dated 2012).
Values belong to the molecule of their own block, whether it stands above or below them.

Key:
Type in all cases: physicochemical
[1] = Aspect (color/clarity/homogeneity) of HA-based gel after autoclaving
[2] = Extrusion force of HA-based gel after autoclaving; conditions: ΔF vs HA gel without the added ingredients
Description: Stability of a hydrogel composition disclosed herein can be determined by subjecting a hydrogel composition to a heat treatment, such as, e.g., steam sterilization at normal pressure or under pressure (e.g., autoclaving). […] Substantial stability of a hydrogel composition disclosed herein can be evaluated 1) by determining the change in the extrusion force (ΔF) of a hydrogel composition disclosed herein after sterilization, where the change in extrusion force less 2N is indicative of a substantially stable hydrogel composition as measured by (the extrusion force of a hydrogel composition with the specified additives) minus (the extrusion force of the a hydrogel composition without the added additives); and/or 2) by determining the change in rheological properties of a hydrogel composition disclosed herein after sterilization, where the change in tan δ 1 Hz of less than 0.1 is indicative of a substantially stable hydrogel composition as measured by (tan δ 1 Hz of gel formulation with additives) minus (tan δ 1 Hz of gel formulation without additives). As such, a substantially stable hydrogel composition disclosed herein retains one or more of the following characteristics after sterilization: homogeneousness, extrusion force, cohesiveness, hyaluronan concentration, agent(s) concentration, osmolarity, pH, or other rheological characteristics desired by the hydrogel before the heat treatment.
(§1) The hydrogel properties, aspect (i.e., color/clarity/homogeneity), and extrusion force were analyzed after autoclaving and at 3 years equivalent at room temperature.

[3] = Extrusion force of HA-based gel at 3 years equivalent at room temperature
Experimental: as §1

[4] = Aspect (color/clarity/homogeneity) of HA-based gel after autoclaving; conditions: for Aspect: after autoclaving and at 3 years equivalent at room temperature
Experimental: The active ingredient was incorporated into a HA-based gel matrix and autoclaved by steam sterilization at a temperature between about 130 °C to about 135 °C for between about one minute and about 10 minutes. The hydrogel properties, aspect (i.e., color/clarity/homogeneity), and extrusion force were analyzed after autoclaving and at 3 years equivalent at room temperature. All formulations were clear, homogenous, uncolored, and had acceptable extrusion force properties after autoclaving and at the 3-year equivalent mark (Table 3).
Ascorbic acid, at a concentration of 1% (w/w) was, incorporated in a HA-based gel matrix, and the pH of the gel adjusted to about 7 and then autoclaved by steam sterilization at a temperature between about 130 °C to about 135 °C for between about one minute and about 10 minutes.

[5] = Oxidation testing: degradation by free radicals (H2O2) on a rheometer; conditions: gel with AA2G and lidocaine versus gel with lidocaine
Description: The effect of ascorbic acid 2-glucoside (AA2G™) on HA-based gel matrix oxidative degradation was studied. Oxidation testing was used as it allows testing of the resistance of a HA-based gel matrix to free radicals. Degradation by free radicals was simulated on a rheometer (Haake Rheostress 600) by addition of 1/7 ratio of H2O2 30% on the surface of a spread gel measured with a controlled stress rheometer according to the following method: frequency of 1 Hz with 0.8% controlled strain, during 3600 s at 35 °C. The time value is taken at 5 Pa/s.

[6] = ingredient at 0.5 % in HA-based gel matrix
[7] = ingredient at 1 % in HA-based gel matrix
[8] = ingredient at 0.3 % in HA-based gel matrix

Molecule: Nc1ccn([C@@H]2O[C@H](CO)[C@@H](O)[C@H]2O)c(=O)n1 [Cytidine]
- Extrusion force (N) after autoclaving [2, 6]: PASSED (the change of extrusion force (ΔF) was less than two Newtons (< 2 N))
- Extrusion force (N) after autoclaving [2, 7]: PASSED (the change of extrusion force (ΔF) was less than two Newtons (< 2 N))
- Extrusion force (N) 3 years ∼ room T °C [3, 6]: PASSED (the change of extrusion force (ΔF) was less than two Newtons (< 2 N))
- Extrusion force (N) 3 years ∼ room T °C [3, 7]: PASSED (the change of extrusion force (ΔF) was less than two Newtons (< 2 N))

Molecule: Cc1cc(=O)n(-c2ccccc2)n1C [Antipyrin, reference compound]
- Extrusion force (N) after autoclaving [2, 6]: PASSED (the change of extrusion force (ΔF) was less than two Newtons (< 2 N))
- Extrusion force (N) after autoclaving [2, 7]: PASSED (the change of extrusion force (ΔF) was less than two Newtons (< 2 N))
- Extrusion force (N) 3 years ∼ room T °C [3, 6]: PASSED (the change of extrusion force (ΔF) was less than two Newtons (< 2 N))
- Extrusion force (N) 3 years ∼ room T °C [3, 7]: PASSED (the change of extrusion force (ΔF) was less than two Newtons (< 2 N))
- Aspect [4, 6]: Clear Homogeneous Uncolored
- Aspect [4, 7]: Clear Homogeneous Uncolored

Molecule: O=C1O[C@H]([C@@H](O)CO)C(O)=C1O[C@H]1O[C@H](CO)[C@@H](O)[C@H](O)[C@H]1O [Ascorbic acid 2-Glucoside]
- protected against oxidative degradation by a factor [5]: 3
- aspect of gel after autoclaving ([1]; 0.6% (w/w), 1% (w/w), or 2% (w/w) AA2G in HA-based gel matrix, pH about 7, same before autoclaving): clear and uncolored

Molecule: Cc1c(C)c2c(c(C)c1OP(=O)([O-])[O-])CCC(C)(CCCC(C)CCCC(C)CCCC(C)C)O2.[Na+].[Na+] (stereo not drawn) [Sodium Tocopheryl Phosphate]
- aspect of gel after autoclaving ([1]; 0.4% (w/w) or 1.2% (w/w) in HA-based gel matrix): unclear and white

Molecule: O=c1ccn([C@@H]2O[C@H](CO)[C@@H](O)[C@H]2O)c(=O)[nH]1 [Uridine]
- Extrusion force (N) after autoclaving [2, 6]: PASSED (the change of extrusion force (ΔF) was less than two Newtons (< 2 N))
- Extrusion force (N) after autoclaving [2, 7]: PASSED (the change of extrusion force (ΔF) was less than two Newtons (< 2 N))
- Extrusion force (N) 3 years ∼ room T °C [3, 6]: PASSED (the change of extrusion force (ΔF) was less than two Newtons (< 2 N))
- Extrusion force (N) 3 years ∼ room T °C [3, 7]: PASSED (the change of extrusion force (ΔF) was less than two Newtons (< 2 N))
- Aspect [4, 6]: Clear Homogeneous Uncolored
- Aspect [4, 7]: Clear Homogeneous Uncolored

Molecule: CC12CCC(CC1)C(C)(C)O2 [Eucalyptol]
- Extrusion force (N) after autoclaving [2, 6]: PASSED (the change of extrusion force (ΔF) was less than two Newtons (< 2 N))
- Extrusion force (N) 3 years ∼ room T °C [3, 6]: PASSED (the change of extrusion force (ΔF) was less than two Newtons (< 2 N))

Molecule: CNCC(O)c1ccc(O)cc1 (stereo not drawn) [Synephrine, 4-[1-hydroxy-2-(methylamino)ethyl]phenol]
- aspect of gel after autoclaving ([1]; 100 ppm synephrine in HA-based gel matrix comprising 0.3% (w/w) lidocaine, same before autoclaving): clear and uncolored

Molecule: OCC(O)CO [Glycerin]
- Extrusion force (N) after autoclaving [2, 6]: PASSED (the change of extrusion force (ΔF) was less than two Newtons (< 2 N))
- Extrusion force (N) 3 years ∼ room T °C [3, 6]: PASSED (the change of extrusion force (ΔF) was less than two Newtons (< 2 N))

Molecule: NC(=O)NC1NC(=O)NC1=O (stereo not drawn) [Allantoin]
- Extrusion force (N) after autoclaving [2, 8]: PASSED (the change of extrusion force (ΔF) was less than two Newtons (< 2 N))
- Extrusion force (N) after autoclaving [2, 6]: PASSED (the change of extrusion force (ΔF) was less than two Newtons (< 2 N))
- Extrusion force (N) 3 years ∼ room T °C [3, 8]: PASSED (the change of extrusion force (ΔF) was less than two Newtons (< 2 N))
- Extrusion force (N) 3 years ∼ room T °C [3, 6]: PASSED (the change of extrusion force (ΔF) was less than two Newtons (< 2 N))

Molecule: NC[C@H]1CC[C@H](C(=O)O)CC1 [Tranexamic acid, reference compound]
- Extrusion force (N) after autoclaving [2, 6]: PASSED (the change of extrusion force (ΔF) was less than two Newtons (< 2 N))
- Extrusion force (N) 3 years ∼ room T °C [3, 6]: PASSED (the change of extrusion force (ΔF) was less than two Newtons (< 2 N))
- aspect of gel after autoclaving ([1]; 0.4% (w/w) tranexamic acid in HA-based gel matrix comprising 0.3% (w/w) lidocaine, same before autoclaving): clear and uncolored

Molecule: Cc1cn([C@H]2C[C@H](O)[C@@H](CO)O2)c(=O)[nH]c1=O [Thymidine]
- Extrusion force (N) after autoclaving [2, 6]: PASSED (the change of extrusion force (ΔF) was less than two Newtons (< 2 N))
- Extrusion force (N) after autoclaving [2, 7]: PASSED (the change of extrusion force (ΔF) was less than two Newtons (< 2 N))
- Extrusion force (N) 3 years ∼ room T °C [3, 6]: PASSED (the change of extrusion force (ΔF) was less than two Newtons (< 2 N))
- Extrusion force (N) 3 years ∼ room T °C [3, 7]: PASSED (the change of extrusion force (ΔF) was less than two Newtons (< 2 N))

Further lines, results first:

- aspect of gel after autoclaving ([1]; 0.7% (w/w) in HA-based gel matrix): clear, but heterogeneous
Molecule: Polyoxyethanyl-α-tocopheryl sebacate

- aspect of gel after autoclaving ([4]; 1% (w/w) in HA-based gel matrix, pH about 7, clear and uncolored before autoclaving): clear but yellowed
Molecule: O=C1O[C@H]([C@@H](O)CO)C(O)=C1O [Ascorbic acid, (5R)-[(1S)-1,2-dihydroxyethyl]-3,4-dihydroxyfuran-2(5H)-one]

- aspect of gels after autoclaving ([1]; 100 ppm or 400ppm phenylephrine in HA-based gel matrixes comprising 0.3% (w/w) lidocaine, same before autoclaving): clear and uncolored
Molecule: CNC[C@H](O)c1cccc(O)c1 [Phenylephrine, (R)-3-[-1-hydroxy-2-(methylamino)ethyl]phenol]

- aspect of gel after autoclaving ([1]; 0.6% (w/w), 1% (w/w) or 2% (w/w) MAP in HA-based gel matrix, pH about 7, same before autoclaving): clear and uncolored
Molecule: O=C1O[C@H]([C@@H](O)CO)C([O-])=C1OP(=O)([O-])[O-].O=C1O[C@H]([C@@H](O)CO)C([O-])=C1OP(=O)([O-])[O-].[Mg+2].[Mg+2].[Mg+2] [Magnesium Ascorbyl Phosphate]

- aspect of gel after autoclaving ([1]; 1% (w/w) in HA-based gel matrix comprising 0.3% (w/w) lidocaine, same before autoclaving): clear and uncolored
Molecule: CC(C)(CO)[C@@H](O)C(=O)NCCCO [Dexpanthenol]

- aspect of gel after autoclaving ([1]; 0.6% (w/w), 1% (w/w), or 2% (w/w) SAP in HA-based gel matrix, pH about 7, same before autoclaving): clear and uncolored
Molecule: O=C1O[C@H]([C@@H](O)CO)C([O-])=C1OP(=O)([O-])[O-].[Na+].[Na+].[Na+] [Sodium Ascorbyl Phosphate]

- aspect of gel after autoclaving ([1]; 10 ppm in HA-based gel matrix comprising 0.3% (w/w) lidocaine, clear and uncolored before autoclaving): clear but colored
- aspect of gel after autoclaving ([1]; 10 ppm in HA-based gel matrix, same before autoclaving): clear and uncolored
- aspect of gel after autoclaving ([1]; 20 ppm in HA-based gel matrix comprising 0.3% (w/w) lidocaine and 4.5% (w/w) mannitol, clear and uncolored before autoclaving): slightly colored
Molecule: CNC[C@H](O)c1ccc(O)c(O)c1 [Epinephrine bitartrate]

- aspect of gel after autoclaving ([1]; 100 ppm naphazoline in HA-based gel matrix comprising 0.3% (w/w) lidocaine, same before autoclaving): clear and uncolored
Molecule: c1ccc2c(CC3=NCCN3)cccc2c1 [Naphazoline, 2-(1-naphthylmethyl)-2-imidazoline]

- aspect of gel after autoclaving ([1]; 10 ppm in HA-based gel matrix with 0.9% (w/w) mannitol): slightly colored
- aspect of gel after autoclaving ([1]; 10 ppm in HA-based gel matrix with 4.5% (w/w) mannitol, same before autoclaving): clear and uncolored
Molecule: CNC[C@H](O)c1ccc(O)c(O)c1 [Epinephrine, (R)-4-(1-hydroxy-2-(methylamino)ethyl)benzene-1,2-diol]

- aspect of gel after autoclaving ([1]; 0.5% (w/w) or 1.2% (w/w) in HA-based gel matrix): unclear and white
Molecule: CC(=O)Oc1c(C)c(C)c2c(c1C)CCC(C)(CCC[C@H](C)CCC[C@H](C)CCCC(C)C)O2 (stereo partly drawn) [Tocopheryl Acetate]
